Columns and labels:
[1] = molecular target: T1, human prostanoid EP2 receptor (Homo sapiens, UniProt P43116); assay: FLIPR Ca2+ signaling antagonist assay, EP2 receptor stable cell line; type: cell-based; conditions: HEK-293 EBNA stable cells with chimeric Gqs, standard agonist PGE2; NA = inactive (no antagonism or Kb≧10,000 nM)
T1 construct: expressed in transfected cells
Description: (§1) The above compounds were tested for PG antagonist activity as follows using human recombinant prostanoid receptor (DP1, EP1-4, FP, IP and TP) stable cell lines:
(§2) In order to measure the response of Gs and Gi coupled prostanoid receptors as a Ca^2+ signal, chimeric G protein cDNAs were used. Stable cell lines over-expressing human prostanoid DP1, EP1-4, FP, IP, and TP receptors were established as follows:
(§3) Briefly, human prostanoid DP1, EP2, and EP4 receptor cDNAs were co-transfected with chimeric Gqs cDNA containing a haemagglutanin (HA) epitope; human prostanoid EP3 receptors were co-transfected with chimeric Gqi-HA; human EP1, FP, IP, and TP receptor cDNAs were expressed with no exogenous G-proteins. Gqs and Gqi chimeric cDNAs (Molecular Devices, Sunnyvale, Calif., U.S.A.), as well as cDNAs of prostanoid receptors, were cloned into a pCEP4 vector with a hygromycin B selection marker. Transfection into HEK-293 EBNA (Epstein-Barr virus nuclear antigen) cells was achieved by the FuGENE 6 transfection Reagent (Roche Applied Science, Indianapolis, Ind., USA). Stable transfectants were selected according to hygromycin resistance. Because Gqs and Gqi contained an HA epitope, G-protein expression was detected by Western blotting analysis using anti-mouse HA monoclonal antibody and horseradish peroxidase (HRP)-conjugated secondary antibody, while functional expression of prostanoid receptors was detected by FLIPR screening (Matias et al., 2004). These stable cell lines were validated using previously published antagonists at 10 μM against serial dilutions of standard agonists by FLIPR functional assays for Ca^2+ Signaling (as described below).
(§4) Ca^2+ signaling studies were performed using a FLIPR TETRA system (Molecular Devices, Sunnyvale, Calif., USA) in the 384-format. This is a high-throughput instrument for cell-based assays to monitor Ca^2+ signaling associated with GPCRs and ion channels. Cells were seeded at a density of 5×10^4 cells/well in BioCoat poly-D-lysine coated, black wall, clear bottom 384-well plates (BD Biosciences, Franklin lakes, NJ, USA) and allowed to attach overnight in an incubator at 37° C. The cells were then washed twice with HBSS-HEPES buffer (Hanks' balanced salt solution without bicarbonate and phenol red, 20 mM HEPES, pH 7.4) using an ELx405 Select CW Microplate Washer (BioTek, Winooski, Vt., USA). After 60 min of dye-loading in the dark using the Ca^2+-sensitive dye Fluo-4AM (Invitrogen, Carlsbad, Calif., USA), at a final concentration of 2×10^−6M, the plates were washed 4 times with HBSS-HEPES buffer to remove excess dye and leaving 50 μl of buffer in each well. The plates were then placed in the FLIPR TETRA instrument and allowed to equilibrate at 37° C. AGN-211377 was added in a 25 μl volume to each well to give final concentrations of 0.1 μM, 0.3 μM, 1 μM, 3 μM, 10 μM, and 30 μM; or 0.067 μM, 0.1 μM, 0.2 μM, 0.3 μM, 0.67 μM, and 1 μM for cells over-expressing TP receptors. After 4.5 minutes, a 7-point serial dilution of the standard agonist for the corresponding receptor, in a 25 μl volume was injected at the final concentrations from 10^−11M to 10^−5M in 10-fold serial dilution increments for cells expressing human recombinant DP1, EP1, EP2, EP3, EP4, FP, and IP receptors. The dose range for the standard agonist for human recombinant TP receptors was from 10^−12M to 10^−6M. HBSS-HEPES buffer was used as the negative control for the standard agonists. Cells were excited with LED (light emitting diode) excitation at 470-495 nm and emission was measured through an emission filter at 515-575 nm. Assay plates were read for 3.5 minutes using the FLIPR^TETRA. The peak increase in fluorescence intensity was recorded for each well. On each plate, negative controls, dose response of positive controls, and co-treatments of antagonist-agonist for each dose were in triplicates. Standard agonists were as follows: DP=BW 245C, EP1-EP4=PGE2, FP=17-phenyl-PGF2α, IP=Cicaprost, and TP=U-46619. […]

[2] = molecular target: T2, human prostanoid EP4 receptor (Homo sapiens, UniProt P35408); assay: FLIPR Ca2+ signaling antagonist assay, EP4 receptor stable cell line; type: cell-based; conditions: HEK-293 EBNA stable cells with chimeric Gqs, standard agonist PGE2; NA = inactive (no antagonism or Kb≧10,000 nM)
T2 construct: expressed in transfected cells
T2 sequence (P35408 whole entry): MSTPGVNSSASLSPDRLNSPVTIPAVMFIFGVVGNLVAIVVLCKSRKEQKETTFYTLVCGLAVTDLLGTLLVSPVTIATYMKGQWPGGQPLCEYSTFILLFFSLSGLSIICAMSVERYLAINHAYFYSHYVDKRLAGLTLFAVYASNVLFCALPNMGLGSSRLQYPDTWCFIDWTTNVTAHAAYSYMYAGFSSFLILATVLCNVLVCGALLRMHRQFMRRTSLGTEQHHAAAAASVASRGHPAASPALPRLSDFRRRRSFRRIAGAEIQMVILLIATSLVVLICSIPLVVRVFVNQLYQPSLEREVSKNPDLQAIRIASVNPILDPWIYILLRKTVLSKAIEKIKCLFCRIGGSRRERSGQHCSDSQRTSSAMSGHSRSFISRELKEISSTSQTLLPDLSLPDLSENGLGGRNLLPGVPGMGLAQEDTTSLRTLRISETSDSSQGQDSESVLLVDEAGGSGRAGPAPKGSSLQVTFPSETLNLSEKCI
Description: as §1, §2, §3, §4

[3] = molecular target: T3, human prostanoid EP1 receptor (Homo sapiens, UniProt P34995); assay: FLIPR Ca2+ signaling antagonist assay, EP1 receptor stable cell line; type: cell-based; conditions: HEK-293 EBNA stable cells, standard agonist PGE2; NA = inactive (no antagonism or Kb≧10,000 nM)
T3 construct: expressed in transfected cells
T3 sequence (P34995 1-402): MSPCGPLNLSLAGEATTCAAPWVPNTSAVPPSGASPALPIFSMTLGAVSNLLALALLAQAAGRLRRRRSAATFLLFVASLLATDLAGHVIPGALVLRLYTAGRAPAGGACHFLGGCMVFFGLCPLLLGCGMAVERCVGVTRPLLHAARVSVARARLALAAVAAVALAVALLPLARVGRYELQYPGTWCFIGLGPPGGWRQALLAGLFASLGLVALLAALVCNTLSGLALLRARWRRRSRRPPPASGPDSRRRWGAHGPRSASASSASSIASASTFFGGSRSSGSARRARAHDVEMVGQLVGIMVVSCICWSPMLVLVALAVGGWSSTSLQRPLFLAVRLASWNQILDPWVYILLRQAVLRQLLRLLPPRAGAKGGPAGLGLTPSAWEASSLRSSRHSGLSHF
Description: as §1, §2, §3, §4

[4] = molecular target: T4, human prostanoid EP3 receptor (Homo sapiens, UniProt P43115); assay: FLIPR Ca2+ signaling antagonist assay, EP3 receptor stable cell line; type: cell-based; conditions: HEK-293 EBNA stable cells with chimeric Gqi, standard agonist PGE2; NA = inactive (no antagonism or Kb≧10,000 nM)
T4 construct: expressed in transfected cells
T4 sequence (P43115 1-390): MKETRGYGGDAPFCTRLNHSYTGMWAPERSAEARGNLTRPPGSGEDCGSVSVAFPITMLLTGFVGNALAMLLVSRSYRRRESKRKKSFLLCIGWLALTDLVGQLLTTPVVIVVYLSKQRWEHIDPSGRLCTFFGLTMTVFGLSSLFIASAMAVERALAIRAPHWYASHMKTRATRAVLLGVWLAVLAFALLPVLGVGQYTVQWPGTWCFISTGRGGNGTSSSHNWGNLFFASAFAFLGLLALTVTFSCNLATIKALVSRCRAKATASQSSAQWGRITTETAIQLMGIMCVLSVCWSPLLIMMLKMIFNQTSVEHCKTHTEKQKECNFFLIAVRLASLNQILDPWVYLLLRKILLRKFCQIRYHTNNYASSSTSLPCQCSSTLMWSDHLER
Description: as §1, §2, §3
Ca^2+ signaling studies were performed using a FLIPR TETRA system (Molecular Devices, Sunnyvale, Calif., USA) in the 384-format. […] Cells were excited with LED (light emitting diode) excitation at 470-495 nm and emission was measured through an emission filter at 515-575 nm. Assay plates were read for 3.5 minutes using the FLIPR^TETRA. The peak increase in fluorescence intensity was recorded for each well. […]

[5] = molecular target: T5, human prostanoid FP receptor (Homo sapiens, UniProt P43088); assay: FLIPR Ca2+ signaling antagonist assay, FP receptor stable cell line; type: cell-based; conditions: HEK-293 EBNA stable cells, standard agonist 17-phenyl-PGF2α; NA = inactive (no antagonism or Kb≧10,000 nM)
T5 construct: expressed in transfected cells
T5 sequence (P43088 whole entry): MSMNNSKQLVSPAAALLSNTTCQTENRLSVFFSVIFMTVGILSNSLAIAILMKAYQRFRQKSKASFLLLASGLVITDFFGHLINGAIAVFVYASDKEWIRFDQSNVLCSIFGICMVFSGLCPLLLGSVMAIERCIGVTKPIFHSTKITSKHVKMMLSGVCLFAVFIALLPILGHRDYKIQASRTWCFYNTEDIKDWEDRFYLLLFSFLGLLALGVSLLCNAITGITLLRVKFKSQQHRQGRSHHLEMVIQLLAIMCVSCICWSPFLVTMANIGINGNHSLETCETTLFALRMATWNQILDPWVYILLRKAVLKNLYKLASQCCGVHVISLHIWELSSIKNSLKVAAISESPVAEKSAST
Description: as §1, §2, §3, §4

[6] = molecular target: T6, human prostanoid DP1 receptor (Homo sapiens, UniProt Q13258); assay: FLIPR Ca2+ signaling antagonist assay, DP1 receptor stable cell line; type: cell-based; conditions: HEK-293 EBNA stable cells with chimeric Gqs, standard agonist BW 245C; NA = inactive (no antagonism or Kb≧10,000 nM)
T6 construct: expressed in transfected cells
T6 sequence (Q13258 1-359): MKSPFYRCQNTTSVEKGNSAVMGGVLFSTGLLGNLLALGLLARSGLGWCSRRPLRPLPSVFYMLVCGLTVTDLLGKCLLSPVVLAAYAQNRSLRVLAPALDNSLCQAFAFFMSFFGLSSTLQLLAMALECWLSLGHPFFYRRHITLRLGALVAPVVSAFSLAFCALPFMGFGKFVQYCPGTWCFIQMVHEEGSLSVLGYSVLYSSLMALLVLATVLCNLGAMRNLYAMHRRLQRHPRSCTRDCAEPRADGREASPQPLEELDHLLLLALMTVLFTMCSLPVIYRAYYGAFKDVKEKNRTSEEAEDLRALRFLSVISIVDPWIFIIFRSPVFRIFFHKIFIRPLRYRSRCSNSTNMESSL
Description: as §1, §2, §3, §4

[7] = molecular target: T7, human prostanoid TP receptor (Homo sapiens, UniProt P21731); assay: FLIPR Ca2+ signaling antagonist assay, TP receptor stable cell line; type: cell-based; conditions: HEK-293 EBNA stable cells, standard agonist U-46619; NA = inactive (no antagonism or Kb≧10,000 nM)
T7 construct: expressed in transfected cells
T7 sequence (P21731 1-343): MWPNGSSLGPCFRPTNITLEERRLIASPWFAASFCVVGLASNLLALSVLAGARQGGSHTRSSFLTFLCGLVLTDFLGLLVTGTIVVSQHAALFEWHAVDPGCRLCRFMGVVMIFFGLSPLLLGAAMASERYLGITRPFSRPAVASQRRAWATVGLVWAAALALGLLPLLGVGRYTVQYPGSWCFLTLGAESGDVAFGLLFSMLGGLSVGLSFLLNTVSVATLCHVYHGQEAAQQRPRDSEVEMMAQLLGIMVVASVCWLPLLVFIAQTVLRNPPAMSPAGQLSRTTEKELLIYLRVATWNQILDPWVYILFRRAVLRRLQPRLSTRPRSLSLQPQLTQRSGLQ
Description: as §1, §2, §3, §4

[8] = molecular target: T8, human prostanoid IP receptor (Homo sapiens, UniProt P43119); assay: FLIPR Ca2+ signaling antagonist assay, IP receptor stable cell line; type: cell-based; conditions: HEK-293 EBNA stable cells, standard agonist Cicaprost; NA = inactive (no antagonism or Kb≧10,000 nM)
T8 construct: expressed in transfected cells
T8 sequence (P43119 whole entry): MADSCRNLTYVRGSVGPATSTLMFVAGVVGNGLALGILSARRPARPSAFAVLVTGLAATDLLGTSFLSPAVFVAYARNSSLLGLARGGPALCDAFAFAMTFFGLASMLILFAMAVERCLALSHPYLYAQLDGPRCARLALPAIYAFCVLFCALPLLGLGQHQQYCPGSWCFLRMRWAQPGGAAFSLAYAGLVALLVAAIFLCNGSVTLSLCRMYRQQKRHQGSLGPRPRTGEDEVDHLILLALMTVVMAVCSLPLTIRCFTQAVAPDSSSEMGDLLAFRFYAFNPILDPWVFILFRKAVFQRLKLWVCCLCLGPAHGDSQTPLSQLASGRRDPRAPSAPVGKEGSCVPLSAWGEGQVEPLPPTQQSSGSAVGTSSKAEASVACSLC
Description: as §1, §2, §3, §4

[9] = Allergic conjunctival itch (itch-scratch episodes); type: in vivo; conditions: FIGS. 10 and 11, both experiments
Description: The compounds of this invention were tested according to the method described in “Characterization of Receptor Subtypes Involved in Prostanoid-Induced Conjunctival Pruritis and Their Role in Mediating Conjunctival Itching”, Vol. 279, No. 1, (JPET)279, 137-142′ 1996 for their efficacy in alleviating itch.

[10] = test system: Dutch-belted pigmented rabbits; assay: Arachidonate induced uveitis, anterior chamber leukocyte infiltration; type: in vivo, rabbit; conditions: topical, concentrations of 0.1, 0.3 and 1%; 0.5% sodium arachidonate challenge; FIG. 12
Description: The rational for this protocol is to use arachidonate to directly produce ocular anterior segment uveitis, as opposed to using lipopolysaccharide (LPS) to indirectly release arachidonic acid.
Conscious male or female Dutch-belted pigmented rabbits weighing 2.5-3 kg were used for all in vivo slit lamp studies. Four animals were employed per test group. The right eye of each animal receiving 35 μl of topically administered test and the contralateral left eye of each animal receiving 35 μl of topically administered vehicle (t=0 minutes), followed 30 minutes later by treatment with 35 μl of 0.5% sodium arachidonate onto the surface of both eyes (t=30 minutes). Both eyes were examined by slit lamp 60 minutes following sodium arachdionate challenge (t=90 minutes) at 16× magnification under both white light and blue light illumination at an approximate angle of 45° through 1 mm and 5 mm slit widths.
Anterior chamber leukocyte infiltration was measured using a numerical scoring system to estimate cell number per field defined by a 5 mm slit width: 0=no cells per field (no response); 1=1-10 cells per field (mild); 2=11-20 cells per field (moderate); 3=[…] cells per field (severe); 4=>50 cells per filed (florid). Results are reported as the mean score value±S.E.M.

T1 sequence (P43116 whole entry): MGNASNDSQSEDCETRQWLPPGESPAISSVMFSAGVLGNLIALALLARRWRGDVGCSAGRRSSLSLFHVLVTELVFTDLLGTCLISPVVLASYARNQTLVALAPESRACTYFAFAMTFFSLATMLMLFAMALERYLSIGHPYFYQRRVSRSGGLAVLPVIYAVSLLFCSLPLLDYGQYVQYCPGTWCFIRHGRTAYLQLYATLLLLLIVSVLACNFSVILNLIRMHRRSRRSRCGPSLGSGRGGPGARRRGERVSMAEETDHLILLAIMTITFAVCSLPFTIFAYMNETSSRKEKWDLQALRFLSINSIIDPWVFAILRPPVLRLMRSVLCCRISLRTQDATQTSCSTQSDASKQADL

Compound	Kb [1] [µM]	Kb [2] [µM]	Kb [3] [µM]	Kb [4] [µM]	Kb [5] [µM]	Kb [6] [µM]	Kb [7] [µM]	Kb [8] [µM]	number of itch-scratch episodes [9]	effect in model for uveitis (anterior chamber leukocyte infiltration score) [10]
Cc1cc(CCC(=O)NS(=O)(=O)C(F)(F)F)nn1Cc1cc(Cl)ccc1OCc1ccc(Cl)cc1 [Example 1, N-(3-{1-[5-Chloro-2-(4-Chloro-Benzyloxy)-Benzyl]-5-Methyl-1H-Pyrazol-3-yl}-Propionyl)-C,C,C-Trifluoromethanesulfonamide]	3.1	0.15	0.022	1.4	0.14	0.28	0.012	0.62	–	–
CCC(CC)COc1ccc(Br)cc1Cn1nc(CCC(=O)O)cc1C [Example 3, 3-{1-[5-Bromo-2-(2-ethyl-butoxy)-benzyl]-5-methyl-1H-pyrazol-3-yl}-propionic acid]	2.3	0.085	0.04	–	0.075	0.14	0.009	1.6	significantly lower number of itch-scratch episodes	dose dependent response
CCC(CC)COc1ccc(Cl)cc1Cn1nc(CCC(=O)O)cc1C [Example 3a, 3-{1-[5-Chloro-2-(2-ethyl-butoxy)-benzyl]-5-methyl-1H-pyrazol-3-yl}-propionic acid]	2.9	0.068	0.071	7.1	0.18	0.22	0.005	1.1	significantly lower number of itch-scratch episodes	dose dependent response
Cc1cc(CCC(=O)O)nn1Cc1cc(Br)ccc1OCC1CCCC1 [Example 4, 3-[1-(5-Bromo-2-cyclopentylmethoxybenzyl)-5-methyl-1H-pyrazol-3-yl]-propionic acid]	1.2	0.12	0.024	7.8	0.075	0.24	0.03	1.6	–	–
Cc1cc(CCC(=O)O)nn1Cc1cc(Cl)ccc1OCC1CCCC1 [Example 4a, 3-[1-(5-Chloro-2-cyclopentylmethoxybenzyl)-5-methyl-1H-pyrazol-3-yl]-propionic acid]	4.5	0.18	0.08	–	0.11	0.28	0.003	1.2	–	–
Cc1cc(CCC(=O)O)nn1Cc1cc(C(F)(F)F)ccc1OCC1CCCC1 [Example 5, 3-[1-(2-Cyclopentylmethoxy-5-trifluoromethylbenzyl)-5-methyl-1H-pyrazol-3-yl]-propionic acid]	3.4	0.24	0.024	–	0.063	0.22	0.007	6.8	–	–
